Measurements as given in US8741911B2, “Raf inhibitor compounds” (Eli Lilly and Company, priority 2012, dated 2014).
Where two headings read alike, the source gives them in different places.

Columns and labels:
Ba/F3 c-Kit K642E = test: Ba/F3 c-Kit anti-proliferation assay; format: cell-based; details: Mus musculus, BaF3, Ba/F3 c-Kit K642E, read-out: Anti-proliferation activities (IC50)
Description: (§1) To further evaluate the test compound, it is tested against c-Kit mutations commonly occurring in melanoma and/or GIST. Ba/F3 cell line (from ATCC) are transfected with wild type (WT) c-Kit, c-Kit L576P (Willmore-Payne et al, Human Pathology, 2005, 36(5), 486; Willmore-Payne et al, Human Pathology, 2006, 37, 520), c-Kit K642E (Willmore et al, Am J Clin Pathol, 2004, 122(2), 206; Monsel et al, Oncogene, 2010, 29, 227), c-Kit T670I (Tamborini et al, Oncogene, 2006, 25, 6140), or c-Kit V654A (Tamborini et al, Oncogene, 2006, 25, 6140), respectively are established by retroviral transfection methods well known and used by those skilled in the art. The mutations are generated by polymerase chain reaction (PCR) mutagenesis and confirmed by automated sequencing of the PCR-amplified c-Kit expression construct. Ba/F3 stable cell lines are generated by transfecting with plasmid DNA. Expression of the appropriate c-Kit mutants is confirmed by Western blot analysis.
(§2) Wild type Ba/F3 cells are generally dependent on IL-3 for growth. After c-Kit transfection, these cells are grown in Ba/F3 ATCC recommended growth medium in the presence of stem cell factor (SCF), the ligand of c-Kit. The anti-proliferation activities of test compounds against these cells are tested in the presence of IL-3 or SCF.

Ba/F3 c-Kit L576P = test: Ba/F3 c-Kit anti-proliferation assay; format: cell-based; details: Mus musculus, BaF3, Ba/F3 c-Kit L576P, read-out: Anti-proliferation activities (IC50)
Description: as §1, §2

Ba/F3 c-Kit T670I = test: Ba/F3 c-Kit anti-proliferation assay; format: cell-based; details: Mus musculus, BaF3, Ba/F3 c-Kit T670I, read-out: Anti-proliferation activities (IC50)
Description: as §1, §2

Ba/F3 c-Kit V654A = test: Ba/F3 c-Kit anti-proliferation assay; format: cell-based; details: Mus musculus, BaF3, Ba/F3 c-Kit V654A, read-out: Anti-proliferation activities (IC50)
Description: as §1, §2

Ba/F3 c-Kit WT = test: Ba/F3 c-Kit anti-proliferation assay; format: cell-based; details: Mus musculus, BaF3, Ba/F3 c-Kit WT, read-out: Anti-proliferation activities (IC50)
Description: as §1, §2

B-Raf (V600E) = B-Raf (V600E) (Homo sapiens, UniProt P15056, V600E); test: ActivX KiNativ A375 whole cell lysate assay; format: binding
Chain of B-Raf (V600E) (P15056 whole entry V600E): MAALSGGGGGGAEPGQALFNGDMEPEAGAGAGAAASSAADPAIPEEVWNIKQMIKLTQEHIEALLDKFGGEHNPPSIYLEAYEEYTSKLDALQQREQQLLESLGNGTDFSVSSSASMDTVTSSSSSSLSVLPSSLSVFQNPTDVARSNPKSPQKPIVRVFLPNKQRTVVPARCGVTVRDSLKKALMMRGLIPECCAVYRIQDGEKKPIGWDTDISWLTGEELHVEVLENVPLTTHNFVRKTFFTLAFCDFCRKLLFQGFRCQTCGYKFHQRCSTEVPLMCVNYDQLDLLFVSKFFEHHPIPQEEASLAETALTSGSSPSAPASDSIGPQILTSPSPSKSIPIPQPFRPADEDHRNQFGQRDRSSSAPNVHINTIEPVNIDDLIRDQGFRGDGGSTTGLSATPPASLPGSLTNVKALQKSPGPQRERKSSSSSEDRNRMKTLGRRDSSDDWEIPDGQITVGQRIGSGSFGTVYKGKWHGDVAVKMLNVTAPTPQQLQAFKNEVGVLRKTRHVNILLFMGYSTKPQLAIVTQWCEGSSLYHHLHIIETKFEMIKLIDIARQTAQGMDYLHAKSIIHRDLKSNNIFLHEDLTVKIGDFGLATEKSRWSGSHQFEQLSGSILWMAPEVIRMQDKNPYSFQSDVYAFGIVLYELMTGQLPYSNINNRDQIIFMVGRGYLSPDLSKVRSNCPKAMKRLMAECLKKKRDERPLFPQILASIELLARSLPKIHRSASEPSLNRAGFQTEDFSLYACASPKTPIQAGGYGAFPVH

A-Raf (WT) = target: T1, A-Raf (WT) (Homo sapiens, UniProt P10398); test: ActivX KiNativ A375 whole cell lysate assay; format: binding
T1 construct: Measurement of Raf Kinase Activities with Native Whole Enzymes Using KiNativ Assay; host or cells: A375 human melanoma cells, whole cell lysate
T1 sequence (P10398 1-606): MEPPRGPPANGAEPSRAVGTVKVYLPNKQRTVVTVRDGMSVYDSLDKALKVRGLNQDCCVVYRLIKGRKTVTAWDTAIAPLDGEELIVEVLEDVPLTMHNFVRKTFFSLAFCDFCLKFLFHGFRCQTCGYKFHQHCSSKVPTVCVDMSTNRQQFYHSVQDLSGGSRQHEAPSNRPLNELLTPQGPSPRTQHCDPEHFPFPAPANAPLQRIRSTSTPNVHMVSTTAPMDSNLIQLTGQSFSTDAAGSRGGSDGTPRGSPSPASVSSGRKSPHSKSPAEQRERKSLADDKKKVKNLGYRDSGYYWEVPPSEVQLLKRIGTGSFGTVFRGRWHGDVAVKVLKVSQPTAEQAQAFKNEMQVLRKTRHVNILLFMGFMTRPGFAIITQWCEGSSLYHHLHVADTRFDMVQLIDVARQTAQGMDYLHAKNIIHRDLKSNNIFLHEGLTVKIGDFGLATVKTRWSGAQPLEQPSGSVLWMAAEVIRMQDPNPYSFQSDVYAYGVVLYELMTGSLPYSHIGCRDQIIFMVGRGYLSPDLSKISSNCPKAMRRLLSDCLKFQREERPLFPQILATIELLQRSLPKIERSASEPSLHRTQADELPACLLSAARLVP

HL-60 = test: CellTiter-Glo proliferation and viability assay; format: cell-based; details: Homo sapiens
NUGC-3 = test: CellTiter-Glo proliferation and viability assay; format: cell-based; details: Homo sapiens
TALL-1 = test: CellTiter-Glo proliferation and viability assay; format: cell-based; details: Homo sapiens, read-out: Abs IC50
A2780 = test: CellTiter-Glo proliferation and viability assay; format: cell-based; details: Homo sapiens
P30-OHK = test: CellTiter-Glo proliferation and viability assay; format: cell-based; details: Homo sapiens, read-out: Abs IC50
SW620 = test: CellTiter-Glo proliferation and viability assay; format: cell-based; details: Homo sapiens
Caki-1 = test: CellTiter-Glo proliferation and viability assay; format: cell-based; details: Homo sapiens
DU-145 = test: CellTiter-Glo proliferation and viability assay; format: cell-based; details: Homo sapiens
NCI-H23 = test: CellTiter-Glo proliferation and viability assay; format: cell-based; details: Homo sapiens
NCI-H1694 = test: CellTiter-Glo proliferation and viability assay; format: cell-based; details: Homo sapiens
HEL = test: CellTiter-Glo proliferation and viability assay; format: cell-based; details: Homo sapiens, read-out: Abs IC50
HT-29 = test: CellTiter-Glo proliferation and viability assay; format: cell-based; details: Homo sapiens
HCT-116 = test: CellTiter-Glo proliferation and viability assay; details: Homo sapiens

IC50 (Ba/F3 c-Kit K642E; IL-3): 1200 nM
IC50 (Ba/F3 c-Kit K642E; SCF): 47 nM
IC50 (Ba/F3 c-Kit L576P; IL-3): 2080 nM
IC50 (Ba/F3 c-Kit L576P; SCF): 179 nM
IC50 (Ba/F3 c-Kit T670I; IL-3): 5920 nM
IC50 (Ba/F3 c-Kit T670I; SCF): 290 nM
IC50 (Ba/F3 c-Kit V654A; IL-3): 2940 nM
IC50 (Ba/F3 c-Kit V654A; SCF): 86 nM
IC50 (Ba/F3 c-Kit WT; IL-3): 2860 nM
IC50 (Ba/F3 c-Kit WT; SCF): 62 nM
inhibition at 0.1 µM (B-Raf (V600E); 100 nM): 82.9%
% inhibition (B-Raf (V600E); 100 nM, 0.1 µM): 82%
inhibition at 1 µM (B-Raf (V600E); 1000 nM): 96.5%
% inhibition (B-Raf (V600E); 1000 nM, 1 µM): >98%
inhibition at 0.001 µM (A-Raf (WT); 1 nM): 4.3%
inhibition at 0.01 µM (A-Raf (WT); 10 nM): 13.4%
inhibition at 0.1 µM (A-Raf (WT); 100 nM): 53.6%
inhibition at 1 µM (A-Raf (WT); 1000 nM): 72%
IC50 (HL-60; read-out: Abs IC50): 0.2 nM
IC50 (HL-60; read-out: Rel IC50): 0.14 nM
IC50 (A2780; read-out: Abs IC50): 0.81 nM
IC50 (A2780; read-out: Rel IC50): 0.2 nM
IC50 (SW620; SW-620, read-out: Abs IC50): 2.86 nM
IC50 (SW620; SW-620, read-out: Rel IC50): 0.46 nM
IC50 (DU-145; read-out: Abs IC50): 5.18 nM
IC50 (DU-145; read-out: Rel IC50): 0.66 nM
IC50 (NCI-H23; read-out: Abs IC50): 6.27 nM
IC50 (NCI-H23; read-out: Rel IC50): 0.69 nM
IC50 (NCI-H1694; read-out: Abs IC50): 15.1 nM
IC50 (NCI-H1694; read-out: Rel IC50): 16.3 nM
IC50 (HT-29; HT-29, read-out: Abs IC50): > 20 nM
IC50 (HT-29; HT-29, read-out: Rel IC50): 0.06 nM
IC50 (HT-29; HT-29, B-Raf V600E, colon, CellTiter-Glo, read-out: IC50): 7.3 nM
IC50 (HCT-116; HCT-116, read-out: Abs IC50): 0.72 nM
IC50 (HCT-116; HCT-116, read-out: proliferation and viability IC50): 178 nM
Compound: CNc1ncc2cc(-c3cc(NC(=O)NCCC(C)(C)C)c(F)cc3C)c(C)nc2n1 [Example 1, 1-(3,3-Dimethylbutyl)-3-(2-fluoro-4-methyl-5-(7-methyl-2-(methylamino)pyrido[2,3-d]pyrimidin-6-yl)phenyl)urea]
IC50 (NUGC-3; read-out: Abs IC50): 0.68 nM
IC50 (NUGC-3; read-out: Rel IC50): 0.21 nM
IC50 (TALL-1): 0.75 nM
IC50 (P30-OHK): 1.43 nM
IC50 (Caki-1; read-out: Abs IC50): 2.91 nM
IC50 (Caki-1; read-out: Rel IC50): 2.03 nM
IC50 (HEL): > 20 nM
